Some results are limits rather than exact numbers.

A short description of this test: Cytotoxicity against human MDA-MB-231 cells after 72 hrs by alamar blue assay. In kind it is functional. The following applies: MDA-MB-231, 72 h, read-out: LD50 (the source's name). For orientation: Alamar Blue is a resazurin reagent that responds to reducing activity.
`COc1c(C)c(O)cc2c1C(=O)c1ccccc1C2=O`: the CC50 worked out at 54.4 µM.
As for `COc1cc(C(=O)O)c(O)c2ccc3c(c12)[C@@H]1O[C@@H](OC)[C@H](C)[C@@H]2CC[C@](C)(O3)[C@@H]21`, the figure is 130 µM; as for `COC(=O)c1cc(OC)c2c(O)c(O)ccc2c1O`, 96.5 µM.
With `CCO[C@@H]1O[C@H]2c3c(ccc4c(O)c(C(=O)O)cc(OC)c34)O[C@@]3(C)CC[C@@H]([C@H]1C)[C@@H]23`, the CC50 was 62.3 µM.
For the compound `COc1cc(C(=O)O)c(O)c2ccc3c(c12)C=CC(C)(CCC=C(C)C)O3` (stereo unspecified) [BUSSEIHYDROQUINONE C], the CC50 was determined as 48.4 µM.
For `COc1c(C=O)c(O)cc2c1C(=O)c1ccccc1C2=O` [DAMNACANTHAL], the CC50 is over 352 µM.

The values are drawn from ChEMBL document CHEMBL3867442, “Naphthalene Derivatives from the Roots of Pentas parvifolia and Pentas bussei” (2016).
